Values after ≈ are worked out from the molar mass of the structure shown.
Legend:
[1] = Terminal half life in Sprague-Dawley rat at 10 mg/kg, po measured upto 12 hrs by LC-MS/MS analysis; format: ADME, organism-based; settings: in vivo, read-out: beta t1/2 (converted)
[2] = Aqueous solubility of the compound at pH 2.0 by HPLC analysis; format: physicochemical; settings: buffer
[3] = Cytotoxicity against human MT4 cells assessed as reduction in cell viability incubated for 5 days by MTT assay; format: toxicity, cell-based; settings: time 5 day
[4] = system: Human immunodeficiency virus 1; test: Potency index, ratio of etravirine EC50 to test compound EC50 for antiviral activity against HIV-1 harboring reverse transcriptase F227L/V106A mutant infected in human MT4 cells assessed as protection against virus-induced cytopathic effect incubated for 5 days by MTT assay; format: functional; settings: time 5 day
[5] = system: Human immunodeficiency virus 1; test: Antiviral activity against HIV-1 IIIB infected in human MT4 cells assessed as protection against virus-induced cytotoxicity incubated for 5 days by MTT assay; format: functional, organism-based; settings: Human immunodeficiency virus 1, IIIB, MT4, 120 h
[6] = Acute toxicity in Kunming mouse assessed as change in body weight at 2000 mg/kg, po measured for 7 days; format: organism-based; settings: in vivo, time 7 day
[7] = Cmax in Sprague-Dawley rat at 2 mg/kg, iv measured upto 10 hrs by LC-MS/MS analysis; format: ADME, organism-based; design: route intravenous, dose 2 mg/kg, time <=10; settings: in vivo
[8] = Oral bioavailability in Sprague-Dawley rat at 10 mg/kg measured upto 12 hrs by LC-MS/MS analysis; format: ADME, organism-based; settings: in vivo
[9] = Selectivity index, ratio of CC50 for human MT4 cells to EC50 for antiviral activity against HIV-1 IIIB infected in human MT4 cells; format: toxicity, cell-based; settings: MT4 cells (uninfected and infected with HIV-1 IIIB), read-out: Ratio CC50/EC50
[10] = Cmax in Sprague-Dawley rat at 10 mg/kg, po measured upto 12 hrs by LC-MS/MS analysis; format: ADME, organism-based; design: route oral, dose 10 mg/kg, time <=12; settings: in vivo
[11] = Selectivity index, ratio of CC50 for human MT4 cells to EC50 for antiviral activity against HIV-1 IIIB harboring K103N/Y181C double mutant infected in human MT4 cells; format: toxicity, cell-based; settings: read-out: Ratio CC50/EC50
[12] = Aqueous solubility of the compound at pH 7.4 by HPLC analysis; format: physicochemical; settings: buffer
[13] = system: Human immunodeficiency virus 1; test: Antiviral activity against HIV1 L1001 infected in human MT4 cells assessed as protection against virus-induced cytopathic effect incubated for 5 days by MTT assay; format: functional, organism-based; settings: Human immunodeficiency virus 1, L1001, MT4, 120 h
[14] = system: Human immunodeficiency virus 1; test: Antiviral activity against HIV-1 harboring reverse transcriptase Y181C mutant infected in human MT4 cells assessed as protection against virus-induced cytopathic effect incubated for 5 days by MTT assay; settings: Human immunodeficiency virus 1, MT4, 120 h
[15] = AUC(0 to infinity) in Sprague-Dawley rat at 2 mg/kg, iv measured upto 10 hrs by LC-MS/MS analysis; format: ADME, organism-based; design: route intravenous, dose 2 mg/kg, time <=10; settings: in vivo
[16] = Terminal half life in Sprague-Dawley rat at 2 mg/kg, iv measured upto 10 hrs by LC-MS/MS analysis; format: ADME, organism-based; settings: in vivo, read-out: beta t1/2 (converted)
[17] = Tmax in Sprague-Dawley rat at 2 mg/kg, iv measured upto 10 hrs by LC-MS/MS analysis; format: ADME, organism-based; settings: in vivo
[18] = AUC(0 to t) in Sprague-Dawley rat at 10 mg/kg, po measured upto 12 hrs by LC-MS/MS analysis; format: ADME, organism-based; design: route oral, dose 10 mg/kg, time <=12; settings: in vivo
[19] = AUC(0 to t) in Sprague-Dawley rat at 2 mg/kg, iv measured upto 10 hrs by LC-MS/MS analysis; format: ADME, organism-based; design: route intravenous, dose 2 mg/kg, time <=10; settings: in vivo
[20] = system: Human immunodeficiency virus 1; test: Antiviral activity against HIV-1 harboring reverse transcriptase Y188L mutant infected in human MT4 cells assessed as protection against virus-induced cytopathic effect incubated for 5 days by MTT assay; settings: Human immunodeficiency virus 1, MT4, 120 h
[21] = target: Human immunodeficiency virus type 1 reverse transcriptase (Human immunodeficiency virus 1, UniProt Q72547); test: Inhibition of wild type HIV-1 reverse transcriptase using biotin-labelled dNTPs as substrate incubated for 2 hrs by ELISA
[22] = system: Human immunodeficiency virus 1; test: Potency index, ratio of rilpivirine EC50 to test compound EC50 for antiviral activity against HIV-1 harboring reverse transcriptase F227L/V106A mutant infected in human MT4 cells assessed as protection against virus-induced cytopathic effect incubated for 5 days by MTT assay; format: functional; settings: time 5 day
[23] = system: Human immunodeficiency virus 1; test: Antiviral activity against HIV-1 harboring reverse transcriptase F227L/V106A mutant infected in human MT4 cells assessed as protection against virus-induced cytopathic effect incubated for 5 days by MTT assay; settings: Human immunodeficiency virus 1, MT4, 120 h
[24] = system: Human immunodeficiency virus 1; test: Antiviral activity against HIV-1 IIIB harboring K103N/Y181C double mutant infected in human MT4 cells assessed as protection against virus-induced cytotoxicity incubated for 5 days by MTT assay; format: functional, organism-based; settings: Human immunodeficiency virus 1, IIIB, MT4, 120 h
[25] = Tmax in Sprague-Dawley rat at 10 mg/kg, po measured upto 12 hrs by LC-MS/MS analysis; format: ADME, organism-based; settings: in vivo
[26] = system: Human immunodeficiency virus 1; test: Antiviral activity against HIV-1 harboring reverse transcriptase K103N mutant infected in human MT4 cells assessed as protection against virus-induced cytopathic effect incubated for 5 days by MTT assay; settings: Human immunodeficiency virus 1, MT4, 120 h
[27] = Aqueous solubility of the compound at pH 7.0 by HPLC analysis; format: physicochemical; settings: buffer
[28] = system: Human immunodeficiency virus 1; test: Antiviral activity against HIV-1 harboring reverse transcriptase E138K mutant infected in human MT4 cells assessed as protection against virus-induced cytopathic effect incubated for 5 days by MTT assay; settings: Human immunodeficiency virus 1, MT4, 120 h
[29] = AUC(0 to infinity) in Sprague-Dawley rat at 10 mg/kg, po measured upto 12 hrs by LC-MS/MS analysis; format: ADME, organism-based; design: route oral, dose 10 mg/kg, time <=12; settings: in vivo
[30] = Clearance in Sprague-Dawley rat at 2 mg/kg, iv measured upto 10 hrs by LC-MS/MS analysis; format: ADME, organism-based; settings: in vivo

SMILES: Cc1cc(/C=C/C#N)cc(C)c1Oc1nc(NC2CCN(c3ccc(NS(C)(=O)=O)cc3)CC2)nc2c1COC2
- half-life [1]: 1.47 h
- solubility [2]: 124 µg/mL (≈ 221 µM)
- CC50 at 120 h [3]: 38800 nM
- Ratio EC50 [4]: 3.6
- EC50 [5]: 6.17 nM
- Activity [6]: Non-Toxic
- Cmax [7]: 756 ng/mL
- bioavailability [8]: 16.6%
- selectivity ratio [9]: 6290
- Cmax [10]: 307 ng/mL
- selectivity ratio [11]: 1390
- solubility [12]: 2.1 µg/mL (≈ 3.75 µM)
- EC50 [13]: 12.4 nM
- EC50 [14]: 8.91 nM
- AUC(0-inf) [15]: 908 ng·h/mL
- half-life [16]: 1.11 h
- Tmax [17]: 1.98 min
- AUC(0-t) at 12 h [18]: 727 ng·h/mL
- AUC(0-t) at 10 h [19]: 903 ng·h/mL
- EC50 [20]: 28.3 nM
- IC50 [21]: 150 nM
- Ratio EC50 [22]: 14
- EC50 [23]: 5.79 nM
- EC50 [24]: 27.9 nM
- Tmax [25]: 1 h
- EC50 [26]: 6.91 nM
- solubility [27]: 10.1 µg/mL (≈ 18 µM)
- EC50 [28]: 7.66 nM
- AUC(0-inf) [29]: 753 ng·h/mL
- clearance [30]: 36.7 mL/min/kg

Source: ChEMBL document CHEMBL5038655, “Development of Novel Dihydrofuro[3,4-d]pyrimidine Derivatives as HIV-1 NNRTIs to Overcome the Highly Resistant Mutant Strains F227L/V106A and K103N/Y181C” (J Med Chem, 2022)
